Reference: paper PMC9908843 (Angewandte Chemie (International Ed. in English), 2023)

What was measured:
TmGH1 [1] = target: T1, TmGH1 (Thermotoga maritima, UniProt Q08638); experiment: TmGH1 inhibition; type: biochemical
T1 sequence (Q08638 1-446): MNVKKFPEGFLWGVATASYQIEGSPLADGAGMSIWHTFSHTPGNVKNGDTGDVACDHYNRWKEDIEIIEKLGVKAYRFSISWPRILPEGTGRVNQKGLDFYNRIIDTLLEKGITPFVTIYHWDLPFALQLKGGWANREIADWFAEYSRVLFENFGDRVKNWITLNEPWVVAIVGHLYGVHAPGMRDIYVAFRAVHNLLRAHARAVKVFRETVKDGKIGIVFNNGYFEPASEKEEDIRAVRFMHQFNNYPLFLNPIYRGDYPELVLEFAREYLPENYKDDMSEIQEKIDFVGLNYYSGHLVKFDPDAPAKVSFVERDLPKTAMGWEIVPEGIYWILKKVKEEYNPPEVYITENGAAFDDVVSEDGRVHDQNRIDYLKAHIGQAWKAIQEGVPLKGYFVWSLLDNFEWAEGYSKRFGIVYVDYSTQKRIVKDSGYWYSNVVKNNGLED

SsGH1 = target: T2, SsGH1 (Saccharolobus solfataricus, UniProt P22498); experiment: SsGH1 inhibition; type: biochemical, Sulfolobus solfataricus
T2 sequence (P22498 1-489): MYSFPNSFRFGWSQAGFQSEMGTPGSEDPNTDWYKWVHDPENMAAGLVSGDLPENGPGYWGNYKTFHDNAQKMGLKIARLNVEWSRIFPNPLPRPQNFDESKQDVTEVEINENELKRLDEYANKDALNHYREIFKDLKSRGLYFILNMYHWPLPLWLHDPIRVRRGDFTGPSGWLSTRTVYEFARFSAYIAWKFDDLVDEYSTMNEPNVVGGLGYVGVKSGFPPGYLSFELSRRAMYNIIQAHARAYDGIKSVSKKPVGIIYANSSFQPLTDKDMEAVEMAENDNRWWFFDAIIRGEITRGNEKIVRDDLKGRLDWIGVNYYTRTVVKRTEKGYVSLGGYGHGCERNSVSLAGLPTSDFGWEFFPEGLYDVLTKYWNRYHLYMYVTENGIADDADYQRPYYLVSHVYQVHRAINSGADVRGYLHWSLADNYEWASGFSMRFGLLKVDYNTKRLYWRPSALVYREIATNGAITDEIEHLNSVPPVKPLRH

TmGH1 [2] = target: T1, TmGH1; settings: cited from earlier work
BtMan2A = target: T3, BtMan2A (Bacteroides thetaiotaomicron, UniProt Q8AAK6); experiment: BtMan2A inhibition; type: biochemical; settings: ratio of Ki for BtMan2A
T3 sequence (Q8AAK6 26-864): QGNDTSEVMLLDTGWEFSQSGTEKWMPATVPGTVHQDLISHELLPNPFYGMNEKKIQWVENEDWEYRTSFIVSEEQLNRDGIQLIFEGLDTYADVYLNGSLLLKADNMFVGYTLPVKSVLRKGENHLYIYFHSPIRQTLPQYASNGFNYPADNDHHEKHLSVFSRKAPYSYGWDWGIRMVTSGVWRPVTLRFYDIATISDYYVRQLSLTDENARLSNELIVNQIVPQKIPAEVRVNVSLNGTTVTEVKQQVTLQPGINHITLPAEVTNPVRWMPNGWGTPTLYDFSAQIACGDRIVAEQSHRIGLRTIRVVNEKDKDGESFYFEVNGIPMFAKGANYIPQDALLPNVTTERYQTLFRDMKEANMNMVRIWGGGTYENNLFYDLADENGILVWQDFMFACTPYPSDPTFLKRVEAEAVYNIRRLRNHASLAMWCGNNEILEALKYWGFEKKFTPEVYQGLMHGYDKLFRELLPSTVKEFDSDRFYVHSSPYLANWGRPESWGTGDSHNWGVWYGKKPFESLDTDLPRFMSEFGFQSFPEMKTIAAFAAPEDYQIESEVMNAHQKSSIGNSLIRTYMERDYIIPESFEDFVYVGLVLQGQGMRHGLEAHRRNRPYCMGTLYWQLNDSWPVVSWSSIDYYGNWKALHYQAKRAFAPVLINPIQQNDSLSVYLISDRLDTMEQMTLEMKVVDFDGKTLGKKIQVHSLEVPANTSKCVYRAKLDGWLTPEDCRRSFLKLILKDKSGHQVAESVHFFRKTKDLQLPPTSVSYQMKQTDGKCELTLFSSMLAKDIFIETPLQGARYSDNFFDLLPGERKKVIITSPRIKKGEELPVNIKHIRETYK

TmGH1, SsGH1 and BtMan2A = type: biochemical; settings: 3 vs 4 (TmGH1, SsGH1), 7 vs 8 (BtMan2A)

Compound | Ki (TmGH1 [1]) | Ki (SsGH1) | Fold greater potency over 1-deoxymannojirimycin 6 (BtMan2A) | Fold better inhibitor than the isosteric compound with the gt conformation (TmGH1, SsGH1 and BtMan2A) | Fold better inhibitor than 1-deoxynojirimycin 2 (TmGH1 [2])
OC[C@H]1NC[C@H](O)[C@@H](O)[C@@H]1O [Compound 2, 1‐deoxynojirimycin, reference compound] | 5.4 ± 0.5 µM | 3.1 ± 0.2 µM | – | – | –
O[C@H]1[C@H](O)[C@@H](O)CN2CC[C@H](O)[C@H]12 [Compound 1, castanospermine] | – | – | – | – | four‐fold
C[C@H](O)[C@H]1NC[C@@H](O)[C@@H](O)[C@@H]1O.Cl [Compound 7] | – | – | 27 fold | between six‐ and ten‐fold | –

Continued, in another order:

Ki (TmGH1 [1]) | Ki (SsGH1) | Fold greater potency over 1-deoxymannojirimycin 6 (BtMan2A) | Fold better inhibitor than the isosteric compound with the gt conformation (TmGH1, SsGH1 and BtMan2A) | Compound | Fold better inhibitor than 1-deoxynojirimycin 2 (TmGH1 [2])
135 ± 11 µM | 105 ± 10 µM | – | – | C[C@@H](O)[C@H]1NC[C@H](O)[C@@H](O)[C@@H]1O [Compound 4] | –
16 ± 2 µM | 17 ± 1 µM | – | between six‐ and ten‐fold | C[C@H](O)[C@H]1NC[C@H](O)[C@@H](O)[C@@H]1O.Cl [Compound 3] | –
